Reference: patent US9956243B2, “Combination treatment for acute myeloid leukemia (AML)” (Hoffmann-La Roche Inc., priority 2013, dated 2018)

Columns and labels:
[1] = tested on: MOLM-13-luc.c4 (AML) human AML cells; assay: Antitumor efficacy and survival / increase in life span (ILS) in disseminated MOLM-13.luc.c4 AML model; type: in vivo, SCID beige mice; settings: for tumor burden by BLI photon counts: 5 million cells, treatment from day 3, vs Vehicle-treated control mice (FIG. 1); for Median survival: vehicle control 20.5 days
Method: (§1) Female SCID beige mice (10/group), obtained from Charles River Laboratories (Wilmington, Del.) were used when they were approximately 8-12 weeks old and weighed approximately 20-25 grams. The health of the mice was assessed daily by gross observation and analyses of blood samples taken from sentinel animals housed on shared shelf racks. All animals were allowed to acclimate and recover from any shipping-related stress for a minimum of 72 hours prior to experimental use. Autoclaved water and irradiated food (5058-ms Pico Lab mouse chow, Purina Mills, Richmond, Ind.) were provided ad libitum, and the animals were maintained on a 12 hour light and dark cycle. Cages, bedding and water bottles were autoclaved before use and changed weekly. All animal experiments were conducted in accordance with the Guide for the Care and Use of Laboratory Animals, local regulations, and protocols approved by the Roche Animal Care and Use Committee in an AAALAC accredited facility.
Parental MOLM-13 human AML cells were stably transfected with Luc2 lentiviral particles for 24 hrs in the presence of Polybrene (8 ug/ml) and then selected in the presence of Blasticidin for 3 weeks. Subsequently, one clone was selected by single cell plating in the presence of 0.1 mg/mL G418 and was designated MOLM-13.luc.c4. The lentiviral Luc2 expression plasmid was constructed by incorporating Luc2 gene (Promega) in to pLOC lentiviral plasmid backbone (Thermo Fisher Scientific). Luc2 lentiviral particles were prepared by using Trans-Lentiviral Packaging System (Thermo Fisher Scientific) as recommended.
MOLM-13.luc.c4 was maintained with RPMI 1640 with L-glutamine (2 mM) media (GIBCO/Invitrogen, Carlsbad, Calif.) supplemented with 10% heat-inactivated Fetal Bovine Serum (HI-FBS; GIBCO/Invitrogen, Carlsbad, Calif.), and 1% 100 mM sodium pyruvate. Freshly dissociated MOLM13-Luc.c4 cells (1×106 or 5×106) suspended in Phosphate Buffered Saline (PBS) were then intravenously inoculated via the caudal tail vein into female SCID-beige mice.
It was then filtered thru a 0.22 micron filter into a septum sealed vial for intravenous administration. […] Stock cytarabine (Ara-C injection, 100 mg/ml) was diluted in sterile 0.9% sodium chloride to 44 mg/ml according to manufacturer's instructions and dosed at 200 mg/kg iv twice weekly.
Treatment duration was 3 weeks.
(§2) For increased life span (ILS) assessment, animal body weights were measured two to three times per week, and animals were monitored daily for any clinical signs of toxicity or excessive tumor burden (i.e. hind limb paralysis or morbidity). In addition, progression of disease was monitored by in vivo bioluminescent imaging (BLI) using IVIS® Spectrum system. For each BLI session, mice received 100 mg/kg D-luciferin (Caliper Life Sciences/Perkin-Elmer) via ip injections and were imaged at 20 min post luciferin injection at either a 5 s or a 10 s exposure time. Images were captured by the IVIS® Spectrum system and data were collected and analyzed with Living Image 4.2.0 software (Caliper Life Sciences, Hopkinton, Mass.). Total photon fluxes (ph/s) representing luciferase activity within each fixed region of interest (ROI) covering whole tumors of individual mice were determined. The actual images of mice are not disclosed herein.
Quantification of bioluminescence allowed for direct longitudinal comparison of tumor burden between treatment groups prior to surrogate death end points being reached. Tumor burden was graphically represented as the mean BLI photon flux+standard error of the mean (SEM), and median survival was determined utilizing Kaplan Meier survival analysis. Statistical analysis of comparisons between groups was analyzed by two-way ANOVA, and post-hoc Bonferroni test (GraphPad Prism, version 4.3). Differences between groups were considered to be significant when the probability value (p) was ≤0.05.

[2] = Ara-C 200 mg/kg 2x/week iv; 10 mice/group
Method: as §1, with “Cages, bedding and water bottles were autoclaved before use and changed weekly. All animal experiments were conducted in accordance with the Guide for the Care and Use of Laboratory Animals, local regulations, and protocols approved by the Roche Animal Care and Use Committee in an AAALAC accredited facility.” left out
as §2, with “For each BLI session, mice received 100 mg/kg D-luciferin (Caliper Life Sciences/Perkin-Elmer) via ip injections and were imaged at 20 min post luciferin injection at either a 5 s or a 10 s exposure time.” left out, “The actual images of mice are not disclosed herein.” left out

4-{[(2R,3S,4R,5S)-3-(3-Chloro-2-fluoro-phenyl)-4-(4-chloro-2-fluoro-phenyl)-4-cyano-5-(2,2-dimethyl-propyl)-pyrrolidine-2-carbonyl]amino}-3-methoxy-benzoic acid 1-mPEG-carbonyloxy-ethyl ester (mPEG, average MW, ˜2200) [compound I-B]
tumor burden by BLI photon counts [1]: significantly reduced photon counts
% ILS vs. Vehicle control ([1]; Cpd I-B 437 mg/kg q7d iv, p < 0.05 vs vehicle): 37%
% ILS vs. Vehicle control ([1]; Cpd I-B 437 mg/kg q7d iv, p < 0.05 vs vehicle, listed as Cpd I-B): *37%
Median survival ([1]; Cpd I-B 437 mg/kg q7d iv): 28 days

Nc1ccn([C@@H]2O[C@H](CO)[C@@H](O)[C@@H]2O)c(=O)n1 [Ara-C, cytarabine]
tumor burden by BLI photon counts [1]: no difference
% ILS vs. Vehicle control ([1]; Ara-C 200 mg/kg 2x/wk iv): 0%
Median survival ([1]; Ara-C 200 mg/kg 2x/wk iv): 20 days
monotherapy antitumor activity as assessed by tumor burden (BLI) or ILS [1]: lack of monotherapy activity
monotherapy antitumor activity as assessed by tumor burden (BLI) or ILS ([1]; listed as Cytarabine (Ara-C)): lack of antitumor activity
Mortality [2]: 0
